# From article PMC8149661, “Small-molecule inhibition of Lats kinases may promote Yap-dependent proliferation in postmitotic mammalian tissues” (Nature Communications, 2021)
# Tests used:
# Experiment in all cases: biochemical
# [1] = target: DYRK1B (Homo sapiens, UniProt Q9Y463); settings: read-out: % inhibition
# [2] = target: T1, PKCepsilon (Homo sapiens, UniProt Q02156); design: functional kinase inhibition IC50 (Reaction Biology)
# T1 construct: gene PRKCE
# [3] = target: T2, ROCK1 (Homo sapiens, UniProt Q13464); design: functional kinase inhibition IC50 (Reaction Biology)
# [4] = target: T3, NDR1 (Homo sapiens, UniProt Q15208); design: functional kinase inhibition IC50 (Reaction Biology)
# T3 construct: gene STK38
# [5] = target: T4, PKA (Homo sapiens, UniProt P17612); design: functional kinase inhibition IC50 (Reaction Biology)
# T4 construct: gene PRKACA
# [6] = target: MAP3K7 (Homo sapiens, UniProt O43318); settings: read-out: % inhibition
# [7] = target: CDK19 (Homo sapiens, UniProt Q9BWU1); settings: read-out: % inhibition
# [8] = target: DYRK1A (Homo sapiens, UniProt Q13627); settings: read-out: % inhibition
# [9] = target: CDC42BPG (Homo sapiens, UniProt Q6DT37); settings: read-out: % inhibition
# [10] = target: CLK2 (Homo sapiens, UniProt P49760); settings: read-out: % inhibition
# [11] = target: PKN2 (Homo sapiens, UniProt Q16513); settings: read-out: % inhibition
# [12] = target: HIPK3 (Homo sapiens, UniProt Q9H422); settings: read-out: % inhibition
# [13] = target: PKN1 (Homo sapiens, UniProt Q16512); settings: read-out: % inhibition
# [14] = target: HIPK1 (Homo sapiens, UniProt Q86Z02); settings: read-out: % inhibition
# [15] = target: BMP2K (Homo sapiens, UniProt Q9NSY1); settings: read-out: % inhibition
# [16] = target: LRRK2 (Homo sapiens, UniProt Q5S007); settings: read-out: % inhibition
# [17] = target: CLK1 (Homo sapiens, UniProt P49759); settings: read-out: % inhibition
# [18] = target: PRKACB (Homo sapiens, UniProt P22694); settings: read-out: % inhibition
# [19] = target: PASK (Homo sapiens, UniProt Q96RG2); settings: read-out: % inhibition
# [20] = target: ROCK2 (Homo sapiens, UniProt O75116); settings: read-out: % inhibition
# [21] = target: PAK4 (Homo sapiens, UniProt O96013); settings: read-out: % inhibition
# [22] = target: PRKCD (Homo sapiens, UniProt Q05655); settings: read-out: % inhibition
# [23] = target: GSK3B (Homo sapiens, UniProt P49841); settings: read-out: % inhibition
# [24] = target: PRKG2 (Homo sapiens, UniProt Q13237); settings: read-out: % inhibition
# [25] = target: CLK4 (Homo sapiens, UniProt Q9HAZ1); settings: read-out: % inhibition
# [26] = target: PRKCQ (Homo sapiens, UniProt Q04759); settings: read-out: % inhibition
# [27] = target: TGFBR2 (Homo sapiens, UniProt P37173); settings: read-out: % inhibition
# [28] = target: PRKX (Homo sapiens, UniProt P51817); settings: read-out: % inhibition
# [29] = target: TAOK1 (Homo sapiens, UniProt Q7L7X3); settings: read-out: % inhibition
# [30] = target: T2, ROCK1; settings: read-out: % inhibition
# [31] = target: DMPK (Homo sapiens, UniProt Q09013); settings: read-out: % inhibition
# [32] = target: HIPK2 (Homo sapiens, UniProt Q9H2X6); settings: read-out: % inhibition
# [33] = target: CDC42BPA (Homo sapiens, UniProt Q5VT25); settings: read-out: % inhibition
# [34] = target: MAP4K4 (Homo sapiens, UniProt O95819); settings: read-out: % inhibition
# [35] = target: DAPK3 (Homo sapiens, UniProt O43293); settings: read-out: % inhibition
# [36] = target: PRKCH (Homo sapiens, UniProt P24723); settings: read-out: % inhibition
# [37] = target: CDC7 (Homo sapiens, UniProt O00311); settings: read-out: % inhibition
# [38] = target: CDK8 (Homo sapiens, UniProt P49336); settings: read-out: % inhibition
# CDK8, sequence (P49336 whole entry): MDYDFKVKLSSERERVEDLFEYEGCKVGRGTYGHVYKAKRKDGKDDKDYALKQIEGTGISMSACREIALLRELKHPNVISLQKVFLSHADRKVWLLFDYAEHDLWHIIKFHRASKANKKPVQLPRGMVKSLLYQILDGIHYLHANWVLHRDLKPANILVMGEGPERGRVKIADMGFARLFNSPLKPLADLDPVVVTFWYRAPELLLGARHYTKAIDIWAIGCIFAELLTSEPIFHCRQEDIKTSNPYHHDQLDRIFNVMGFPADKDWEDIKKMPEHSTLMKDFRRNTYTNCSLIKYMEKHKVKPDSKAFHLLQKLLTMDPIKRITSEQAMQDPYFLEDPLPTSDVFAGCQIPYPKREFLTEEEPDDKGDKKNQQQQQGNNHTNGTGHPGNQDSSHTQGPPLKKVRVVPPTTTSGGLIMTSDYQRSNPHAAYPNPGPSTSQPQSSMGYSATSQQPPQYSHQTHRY
# T2 sequence (Q13464 whole entry): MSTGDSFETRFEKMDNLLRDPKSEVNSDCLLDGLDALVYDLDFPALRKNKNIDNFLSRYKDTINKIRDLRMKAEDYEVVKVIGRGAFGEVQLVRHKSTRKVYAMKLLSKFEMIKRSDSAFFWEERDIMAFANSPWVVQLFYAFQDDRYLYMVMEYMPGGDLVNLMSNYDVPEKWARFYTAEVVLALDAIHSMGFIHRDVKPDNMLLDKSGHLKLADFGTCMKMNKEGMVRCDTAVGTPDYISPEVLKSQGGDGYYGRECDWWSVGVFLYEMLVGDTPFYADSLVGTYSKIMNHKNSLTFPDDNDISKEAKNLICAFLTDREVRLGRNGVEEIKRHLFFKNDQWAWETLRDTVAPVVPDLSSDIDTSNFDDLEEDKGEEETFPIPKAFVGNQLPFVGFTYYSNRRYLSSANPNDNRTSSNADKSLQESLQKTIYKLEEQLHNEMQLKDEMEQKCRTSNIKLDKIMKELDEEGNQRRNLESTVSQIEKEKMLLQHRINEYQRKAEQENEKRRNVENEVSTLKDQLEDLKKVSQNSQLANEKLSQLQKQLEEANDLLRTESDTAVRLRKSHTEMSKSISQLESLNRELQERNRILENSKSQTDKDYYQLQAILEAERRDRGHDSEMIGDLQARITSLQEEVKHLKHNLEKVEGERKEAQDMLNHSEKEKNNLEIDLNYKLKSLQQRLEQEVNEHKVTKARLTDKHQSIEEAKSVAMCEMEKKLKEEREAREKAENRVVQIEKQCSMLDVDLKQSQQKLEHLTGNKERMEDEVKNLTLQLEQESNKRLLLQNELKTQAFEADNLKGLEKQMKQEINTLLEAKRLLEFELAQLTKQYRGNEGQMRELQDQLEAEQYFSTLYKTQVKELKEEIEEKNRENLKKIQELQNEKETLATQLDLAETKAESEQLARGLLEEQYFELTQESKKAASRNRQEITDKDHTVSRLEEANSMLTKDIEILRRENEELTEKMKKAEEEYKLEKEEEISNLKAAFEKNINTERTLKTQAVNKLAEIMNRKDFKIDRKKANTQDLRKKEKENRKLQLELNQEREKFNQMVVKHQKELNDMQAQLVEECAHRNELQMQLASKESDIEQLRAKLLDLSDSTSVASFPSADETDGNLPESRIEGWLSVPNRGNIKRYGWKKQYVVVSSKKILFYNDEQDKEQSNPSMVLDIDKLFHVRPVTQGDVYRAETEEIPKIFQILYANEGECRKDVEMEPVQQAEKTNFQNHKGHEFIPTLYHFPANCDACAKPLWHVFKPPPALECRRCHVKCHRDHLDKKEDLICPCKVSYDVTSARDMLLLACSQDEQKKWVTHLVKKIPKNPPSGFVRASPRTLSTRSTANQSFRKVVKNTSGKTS
# CDC7, sequence (O00311 whole entry): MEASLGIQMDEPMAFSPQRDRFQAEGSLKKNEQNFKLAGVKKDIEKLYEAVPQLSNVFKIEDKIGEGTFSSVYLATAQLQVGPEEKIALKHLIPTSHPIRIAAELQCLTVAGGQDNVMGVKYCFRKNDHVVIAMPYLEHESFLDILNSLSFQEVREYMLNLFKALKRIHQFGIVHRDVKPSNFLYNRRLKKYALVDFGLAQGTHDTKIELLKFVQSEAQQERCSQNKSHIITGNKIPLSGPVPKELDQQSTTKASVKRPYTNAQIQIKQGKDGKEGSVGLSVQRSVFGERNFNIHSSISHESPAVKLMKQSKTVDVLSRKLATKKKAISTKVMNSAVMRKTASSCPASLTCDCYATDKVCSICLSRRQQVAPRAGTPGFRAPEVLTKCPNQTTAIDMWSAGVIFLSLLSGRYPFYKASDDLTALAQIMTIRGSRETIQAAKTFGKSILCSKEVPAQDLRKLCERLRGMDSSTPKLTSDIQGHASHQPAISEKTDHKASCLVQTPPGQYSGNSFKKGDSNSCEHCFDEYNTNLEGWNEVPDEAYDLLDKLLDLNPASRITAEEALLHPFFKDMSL
# PAK4, sequence (O96013 whole entry): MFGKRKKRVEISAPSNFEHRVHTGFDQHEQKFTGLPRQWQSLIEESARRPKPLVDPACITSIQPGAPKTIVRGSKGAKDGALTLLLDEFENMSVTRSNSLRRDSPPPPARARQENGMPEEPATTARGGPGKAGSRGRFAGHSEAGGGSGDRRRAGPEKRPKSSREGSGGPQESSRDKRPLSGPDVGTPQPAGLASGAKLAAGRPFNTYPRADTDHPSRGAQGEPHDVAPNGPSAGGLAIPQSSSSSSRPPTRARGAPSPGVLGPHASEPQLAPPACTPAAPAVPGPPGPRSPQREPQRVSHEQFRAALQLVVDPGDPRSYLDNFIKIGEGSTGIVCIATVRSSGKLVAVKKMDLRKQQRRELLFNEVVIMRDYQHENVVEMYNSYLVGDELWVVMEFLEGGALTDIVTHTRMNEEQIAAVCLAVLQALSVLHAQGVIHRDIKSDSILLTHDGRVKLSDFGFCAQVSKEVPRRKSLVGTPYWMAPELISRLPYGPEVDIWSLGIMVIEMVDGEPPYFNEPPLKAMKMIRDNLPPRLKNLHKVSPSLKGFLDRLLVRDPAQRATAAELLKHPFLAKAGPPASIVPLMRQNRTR
# CLK2, sequence (P49760 whole entry): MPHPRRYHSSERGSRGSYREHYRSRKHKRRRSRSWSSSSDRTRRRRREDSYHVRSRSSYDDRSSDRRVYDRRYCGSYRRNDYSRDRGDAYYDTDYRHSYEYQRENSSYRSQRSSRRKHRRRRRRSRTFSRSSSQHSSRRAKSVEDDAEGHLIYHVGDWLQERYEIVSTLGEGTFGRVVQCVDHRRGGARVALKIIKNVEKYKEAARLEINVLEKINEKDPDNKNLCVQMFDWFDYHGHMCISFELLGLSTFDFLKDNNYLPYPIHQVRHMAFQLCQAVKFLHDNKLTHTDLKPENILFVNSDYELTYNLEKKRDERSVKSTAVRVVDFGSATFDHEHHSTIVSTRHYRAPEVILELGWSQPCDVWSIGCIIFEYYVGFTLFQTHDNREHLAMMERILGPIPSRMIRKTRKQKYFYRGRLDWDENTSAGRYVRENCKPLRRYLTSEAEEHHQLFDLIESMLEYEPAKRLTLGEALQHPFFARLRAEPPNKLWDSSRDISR
# TGFBR2, sequence (P37173 whole entry): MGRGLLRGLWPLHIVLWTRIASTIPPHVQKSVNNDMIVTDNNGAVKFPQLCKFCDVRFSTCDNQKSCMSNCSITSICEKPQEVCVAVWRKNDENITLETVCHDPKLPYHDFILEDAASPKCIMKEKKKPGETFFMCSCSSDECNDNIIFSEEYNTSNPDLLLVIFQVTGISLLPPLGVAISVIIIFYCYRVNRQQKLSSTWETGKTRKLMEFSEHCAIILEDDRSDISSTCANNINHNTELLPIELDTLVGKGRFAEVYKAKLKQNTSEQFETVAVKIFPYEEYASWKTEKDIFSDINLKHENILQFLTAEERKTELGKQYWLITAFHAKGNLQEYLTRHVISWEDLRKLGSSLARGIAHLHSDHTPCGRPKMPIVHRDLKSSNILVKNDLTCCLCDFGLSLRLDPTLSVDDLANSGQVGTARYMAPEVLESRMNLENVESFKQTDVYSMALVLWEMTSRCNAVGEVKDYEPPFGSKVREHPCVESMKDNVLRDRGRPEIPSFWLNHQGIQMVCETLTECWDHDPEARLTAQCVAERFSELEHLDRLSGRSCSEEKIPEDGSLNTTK
# DYRK1B, sequence (Q9Y463 whole entry): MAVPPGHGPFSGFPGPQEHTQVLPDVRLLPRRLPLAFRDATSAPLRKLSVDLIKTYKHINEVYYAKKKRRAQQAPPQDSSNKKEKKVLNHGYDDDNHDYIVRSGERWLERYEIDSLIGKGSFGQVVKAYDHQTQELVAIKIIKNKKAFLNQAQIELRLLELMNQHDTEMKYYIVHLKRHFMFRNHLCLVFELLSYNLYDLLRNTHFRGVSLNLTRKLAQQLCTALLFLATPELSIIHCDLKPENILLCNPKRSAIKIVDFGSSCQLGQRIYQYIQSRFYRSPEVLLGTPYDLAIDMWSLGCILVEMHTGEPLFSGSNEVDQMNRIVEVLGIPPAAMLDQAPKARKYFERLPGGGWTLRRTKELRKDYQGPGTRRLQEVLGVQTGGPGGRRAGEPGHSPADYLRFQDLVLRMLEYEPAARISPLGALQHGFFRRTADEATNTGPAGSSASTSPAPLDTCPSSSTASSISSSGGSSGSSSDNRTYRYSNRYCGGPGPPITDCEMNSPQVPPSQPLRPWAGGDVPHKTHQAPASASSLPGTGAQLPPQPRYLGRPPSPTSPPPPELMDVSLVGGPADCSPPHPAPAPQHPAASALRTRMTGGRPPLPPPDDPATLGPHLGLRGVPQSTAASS
# PRKX, sequence (P51817 whole entry): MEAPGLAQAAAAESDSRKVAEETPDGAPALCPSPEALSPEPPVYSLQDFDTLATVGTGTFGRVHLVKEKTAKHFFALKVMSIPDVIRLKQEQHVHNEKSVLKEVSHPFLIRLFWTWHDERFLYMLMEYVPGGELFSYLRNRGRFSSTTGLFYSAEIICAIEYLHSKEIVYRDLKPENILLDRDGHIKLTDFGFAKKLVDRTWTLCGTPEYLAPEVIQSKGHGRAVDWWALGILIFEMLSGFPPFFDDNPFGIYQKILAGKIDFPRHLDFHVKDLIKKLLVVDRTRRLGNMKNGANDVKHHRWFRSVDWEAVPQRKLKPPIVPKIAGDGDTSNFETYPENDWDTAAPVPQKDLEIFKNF
smiles,measurement,setting,value
"O=C(N=c1sccn1Cc1ccccc1)c1c[nH]c2ncccc12 [TRULI, N-(3-benzylthiazol-2(3H)-ylidene)-1H-pyrrolo[2,3-b]pyridine-3-carboxamide]",inhibition at 1 µM,[1],81.5%
same,IC50,[2],14 nM
same,IC50,[3],88 nM
same,IC50,[4],1000 nM
same,IC50,[5],60 nM
same,inhibition at 1 µM,[6],74%
same,inhibition at 1 µM,[7],90.2%
same,inhibition at 1 µM,[8],85.8%
same,inhibition at 1 µM,[9],83.7%
same,inhibition at 1 µM,[10],92.8%
same,inhibition at 1 µM,[11],89.7%
same,inhibition at 1 µM,[12],95.8%
same,inhibition at 1 µM,[13],77.7%
same,inhibition at 1 µM,[14],86.1%
same,inhibition at 1 µM,[15],86.3%
same,inhibition at 1 µM,[16],81.3%
same,inhibition at 1 µM,[17],78.1%
same,inhibition at 1 µM,[18],92.9%
same,inhibition at 1 µM,[19],85.8%
same,inhibition at 1 µM,[20],84.1%
same,inhibition at 1 µM,[21],83.4%
same,inhibition at 1 µM,[22],78%
same,inhibition at 1 µM,[23],92.7%
same,inhibition at 1 µM,[24],79.1%
same,inhibition at 1 µM,[25],102%
same,inhibition at 1 µM,[26],99.2%
same,inhibition at 1 µM,[27],81.3%
same,inhibition at 1 µM,[28],88.1%
same,inhibition at 1 µM,[29],76.4%
same,inhibition at 1 µM,[30],79.2%
same,inhibition at 1 µM,[31],97.9%
same,inhibition at 1 µM,[32],94.2%
same,inhibition at 1 µM,[33],97.2%
same,inhibition at 1 µM,[34],77.5%
same,inhibition at 1 µM,[35],77.1%
same,inhibition at 1 µM,[36],90.4%
same,inhibition at 1 µM,[37],99.1%
same,inhibition at 1 µM,[38],88.8%
